{
  "source": "paper PMC4916434",
  "about": "“Evaluation of the inhibition potential of plumbagin against cytochrome P450 using LC-MS/MS and cocktail approach” (Scientific Reports, 2016)",
  "key": {"CYP2C11": {"biological_target": "T1, CYP2C11 (Rattus norvegicus, UniProt P08683)", "T1 construct": "consisting of pooled HLMs (0.5 mg/ml) or RLMs (1 mg/ml) and an NADPH-regenerating system; from tissue; host or cells: rat liver microsomes prepared in house", "T1 sequence (P08683 1-500)": "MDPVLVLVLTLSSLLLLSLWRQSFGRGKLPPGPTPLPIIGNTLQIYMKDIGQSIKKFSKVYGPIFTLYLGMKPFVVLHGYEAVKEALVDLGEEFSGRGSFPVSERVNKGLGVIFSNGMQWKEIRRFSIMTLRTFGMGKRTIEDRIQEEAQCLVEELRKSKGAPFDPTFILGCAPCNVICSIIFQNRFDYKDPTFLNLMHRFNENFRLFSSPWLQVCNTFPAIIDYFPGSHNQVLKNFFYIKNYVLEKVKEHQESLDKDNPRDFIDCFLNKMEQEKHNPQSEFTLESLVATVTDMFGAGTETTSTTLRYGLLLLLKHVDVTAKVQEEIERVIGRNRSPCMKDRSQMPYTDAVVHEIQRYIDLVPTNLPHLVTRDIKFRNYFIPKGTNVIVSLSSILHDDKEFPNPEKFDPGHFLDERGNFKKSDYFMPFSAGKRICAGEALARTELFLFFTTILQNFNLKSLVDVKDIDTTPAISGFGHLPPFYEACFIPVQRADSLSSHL", "assay_type": "in vitro ADME", "description": "(§1) In this study, the rats were fasted overnight and killed by cervical dislocation before removal of the liver. The liver was excised, rinsed with ice-cold saline (0.9% NaCl w/v), weighed and homogenized in a […] Tris/KCl buffer (pH 7.4). Subsequently, the homogenate was centrifuged at 10,000 × g at 4 °C for 30 min. The supernatant was then centrifuged at 105,000 × g at 4 °C for 60 min. The pellet was reconstituted with […] Tris/KCl buffer (pH 7.4) and stored at −150 °C until use. The protein concentration of the liver microsomes was determined by a protein quantitative assay using bicinchoninic acid[22].\n(§2) Microsomal incubation was carried out at 37 °C in a mixture of 200 μl in 0.05 M Tris/HCl buffer (pH 7.4) consisting of pooled HLMs (0.5 mg/ml) or RLMs (1 mg/ml) and an NADPH-regenerating system including MgCl2 (5 mM), G6P (10 mM), G6PDH (0.4 U/ml) and NADP (1 mM). Substrates were added into the incubation mixture and obtained the final concentrations (10 μM phenacetin for CYP1A2, 20 μM bupropion for CYP2B1/6, 20 μM tolbutamide for CYP2C9/11, 5 μM dextromethorphan for CYP2D1/6, 20 μM chlorzoxazone for CYP2E1 and 10 μM midazolam for CYP3A2/4), which were close to Km respectively. The proportion of organic solvent was not higher than 1% (v/v) in the incubation mixture. After pre-incubation for 5 min, the reaction was initiated by addition of NADP. Incubations were performed for 20 min, stopped by adding 200 μl ice-cold acetonitrile. And then 20 μl internal standard solution was added (3-acetamidophenol 2 μg/ml, chlorpropamide 2 μg/ml and mebendazole 2 μg/ml). The solution was mixed thoroughly for 3 min and centrifuged for 10 min at 16,000 × g at 4 °C. The supernatant (60 μl) was transferred to autosampler vials, and 2 μl was injected into LC-MS/MS system.\n(§3) The IC50 (concentration of inhibitor to cause 50% inhibition of original enzyme activity) values were determined with the same incubation condition above. The specific concentrations of plumbagin were ranged from 0.1 μM to 50 μM. The IC50 values were calculated by plotting relative activities over the logarithm of plumbagin concentrations using GraphPad Prism 5.0 (GraphPad software Inc., CA, USA).\n(§4) Cocktail probe substrates were then added and incubated for 20 min. Reactions were stopped with 200 μl ice-cold acetonitrile. The samples were treated according to the microsomal incubation method and then injected into LC-MS/MS for analysis.\n(§5) Kinetic studies were performed for determining the types of inhibition on CYP by plumbagin. Pooled HLMs (0.5 mg/ml) or RLMs (1 mg/ml) with plumbagin (1 μM, 2 μM, 5 μM and 10 μM) were incubated in 0.05 M Tris/HCl buffer (pH 7.4) for 20 min at 37 °C. A series of concentrations for cocktail probe substrates were used: 2.5–20 μM phenacetin for CYP1A2; 5–40 μM bupropion for CYP2B1/6; 5–40 μM tolbutamide for CYP2C9/11; 1.25–10 μM dextromethorphan for CYP2D1/6; 5–40 μM chlorzoxazone for CYP2E1; 2.5–80 μM midazolam for CYP3A2; and 0.625–5 μM midazolam for CYP3A4. Enzyme kinetics as well as statistical analysis were performed using GraphPad Prism 5.0.\n(§6) All data were presented as mean ± SD. The IC50 values were fitted by non-linear regression analysis using GraphPad Prism 5.0. The kinetic parameters were obtained by fitting velocity data to kinetic models (Michaelis-Menten) using GraphPad Prism 5.0. The Lineweaver-Burk Plot (the reciprocal of reaction velocities versus the reciprocal of substrates concentrations) was used to determine the quality of fit to a specific inhibition model. The inhibition constant (Ki) was obtained by a secondary plot using the slopes of the primary Lineweaver-Burk Plot (Km/Vmax versus inhibitor concentrations). αKi was obtained from a secondary plot using the y-intercepts of the Lineweaver-Burk plot (1/Vmax versus inhibitor concentrations). All results were analyzed in quadruplicate. One-way analysis of variance was used to estimate the significance of differences. […]"}, "CYP3A2": {"biological_target": "T2, CYP3A2 (Rattus norvegicus, UniProt P05183)", "T2 construct": "consisting of pooled HLMs (0.5 mg/ml) or RLMs (1 mg/ml) and an NADPH-regenerating system; from tissue; host or cells: rat liver microsomes prepared in house", "T2 sequence (P05183 1-504)": "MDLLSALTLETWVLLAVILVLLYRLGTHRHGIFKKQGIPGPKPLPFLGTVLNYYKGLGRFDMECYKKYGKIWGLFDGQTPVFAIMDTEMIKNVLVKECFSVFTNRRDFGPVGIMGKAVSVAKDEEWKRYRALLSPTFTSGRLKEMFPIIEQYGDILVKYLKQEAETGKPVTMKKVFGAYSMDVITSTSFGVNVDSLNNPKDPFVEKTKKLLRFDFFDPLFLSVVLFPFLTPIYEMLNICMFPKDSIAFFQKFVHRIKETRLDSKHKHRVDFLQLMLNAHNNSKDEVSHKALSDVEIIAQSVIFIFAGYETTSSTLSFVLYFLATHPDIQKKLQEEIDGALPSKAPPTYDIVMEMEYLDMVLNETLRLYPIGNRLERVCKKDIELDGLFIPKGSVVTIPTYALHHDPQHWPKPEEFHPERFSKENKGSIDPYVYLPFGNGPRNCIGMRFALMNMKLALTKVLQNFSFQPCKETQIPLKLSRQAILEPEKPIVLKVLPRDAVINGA", "assay_type": "in vitro ADME", "description": "as §1, §2, §3, §4, §5, §6"}},
  "data": [
    {"smiles": "CC1=CC(=O)c2c(O)cccc2C1=O", "note": "[plumbagin, 5-hydroxy-2-methyl-1,4-naphthoquinone]", "values": [
      {"measurement": "IC50", "setting": "CYP2C11", "value": 3.85, "unit": "µM"},
      {"measurement": "Ki", "setting": "CYP2C11", "value": 7.85, "unit": "µM"},
      {"measurement": "Type of inhibition", "setting": "CYP2C11", "value": "competitive"},
      {"measurement": "IC50", "setting": "CYP3A2", "value": 8.47, "unit": "µM"}
    ]}
  ]
}
